Measured values published in ChEMBL document CHEMBL1201862, “PubChem BioAssay data set” (2004).
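Interpolation was linear, between the two tested concentrations surrounding the appropriate level; five concentrations were tested over 48 hours in 96-well plates. GI50: concentration for 50% inhibition of growth.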 The source made the active and inactive calls. No stated cut-off is given here; in the data, active = GI50 up to about 1.1 µM and inactive = higher.

How the values were obtained:
Test in all cases: NCI tumour cell line growth inhibition, 48 h
786-0 = tested on: 786-0
A498 = tested on: A498
A549 = tested on: A549
ACHN = tested on: ACHN
BT-549 = tested on: BT-549
CAKI-1 = tested on: CAKI-1
CCRF-CEM = tested on: CCRF-CEM
COLO 205 = tested on: COLO 205
DU-145 = tested on: DU-145
EKVX = tested on: EKVX
HCC 2998 = tested on: HCC 2998
HCT-116 = tested on: HCT-116
HCT-15 = tested on: HCT-15
HOP-62 = tested on: HOP-62
HOP-92 = tested on: HOP-92
HT-29 = tested on: HT-29
Hs-578T = tested on: Hs-578T
IGROV-1 = tested on: IGROV-1
K562 = tested on: K562
KM12 = tested on: KM12
LOX IMVI = tested on: LOX IMVI
M14 = tested on: M14
MCF7 = tested on: MCF7
MDA-MB-231 = tested on: MDA-MB-231
MDA-MB-435 = tested on: MDA-MB-435
MDA-N = tested on: MDA-N
MOLT-4 = tested on: MOLT-4
NCI-H226 = tested on: NCI-H226
NCI-H23 = tested on: NCI-H23
NCI-H460 = tested on: NCI-H460
NCI-H522 = tested on: NCI-H522
OVCAR-4 = tested on: OVCAR-4
OVCAR-5 = tested on: OVCAR-5
OVCAR-8 = tested on: OVCAR-8
PC-3 = tested on: PC-3
RPMI-8226 = tested on: RPMI-8226
RXF 393 = tested on: RXF 393
SF-268 = tested on: SF-268
SF-295 = tested on: SF-295
SF-539 = tested on: SF-539
SK-MEL-28 = tested on: SK-MEL-28
SK-MEL-2 = tested on: SK-MEL-2
SK-MEL-5 = tested on: SK-MEL-5
SK-OV-3 = tested on: SK-OV-3
SN12C = tested on: SN12C
SNB-19 = tested on: SNB-19
SNB-75 = tested on: SNB-75
SR = tested on: SR
SW-620 = tested on: SW-620
T47D = tested on: T47D
TK-10 = tested on: TK-10
U-251 = tested on: U-251
UACC-257 = tested on: UACC-257
UACC-62 = tested on: UACC-62

CCCCCCCCCCCCNC(=O)NCC(OCC)OCC
GI50 (786-0): > 10 µM (inactive) | GI50 (A498): > 10 µM (inactive) | GI50 (A549): > 10 µM (inactive) | GI50 (ACHN): > 10 µM (inactive) | GI50 (BT-549): > 10 µM (inactive) | GI50 (CAKI-1): > 10 µM (inactive) | GI50 (CCRF-CEM): > 10 µM (inactive) | GI50 (COLO 205): > 10 µM (inactive) | GI50 (DU-145): > 10 µM (inactive) | GI50 (EKVX): > 10 µM (inactive) | GI50 (HCC 2998): > 10 µM (inactive) | GI50 (HCT-116): > 10 µM (inactive) | GI50 (HCT-15): > 10 µM | GI50 (HOP-62): > 10 µM (inactive) | GI50 (HOP-92): > 10 µM (inactive) | GI50 (HT-29): > 10 µM (inactive) | GI50 (Hs-578T): > 10 µM (inactive) | GI50 (IGROV-1): > 10 µM (inactive) | GI50 (K562): > 10 µM (inactive) | GI50 (KM12): > 10 µM (inactive) | GI50 (LOX IMVI): > 10 µM (inactive) | GI50 (M14): > 10 µM (inactive) | GI50 (MCF7): > 10 µM (inactive) | GI50 (MDA-MB-231): > 10 µM (inactive) | GI50 (MDA-MB-435): > 10 µM (inactive) | GI50 (MDA-N): > 10 µM (inactive) | GI50 (MOLT-4): > 10 µM (inactive) | GI50 (NCI-H226): > 10 µM (inactive) | GI50 (NCI-H23): > 10 µM (inactive) | GI50 (NCI-H460): > 10 µM (inactive) | GI50 (NCI-H522): > 10 µM (inactive) | GI50 (OVCAR-4): > 10 µM (inactive) | GI50 (OVCAR-5): > 10 µM (inactive) | GI50 (OVCAR-8): > 10 µM (inactive) | GI50 (PC-3): > 10 µM (inactive) | GI50 (RPMI-8226): > 10 µM (inactive) | GI50 (RXF 393): > 10 µM (inactive) | GI50 (SF-268): > 10 µM (inactive) | GI50 (SF-295): > 10 µM (inactive) | GI50 (SF-539): > 10 µM (inactive) | GI50 (SK-MEL-28): > 10 µM (inactive) | GI50 (SK-MEL-2): > 10 µM (inactive) | GI50 (SK-MEL-5): > 10 µM (inactive) | GI50 (SK-OV-3): > 10 µM (inactive) | GI50 (SN12C): > 10 µM (inactive) | GI50 (SNB-19): > 10 µM (inactive) | GI50 (SNB-75): > 10 µM (inactive) | GI50 (SR): > 10 µM (inactive) | GI50 (SW-620): > 10 µM (inactive) | GI50 (T47D): > 10 µM (inactive) | GI50 (TK-10): > 10 µM (inactive) | GI50 (U-251): > 10 µM (inactive) | GI50 (UACC-257): > 10 µM (inactive) | GI50 (UACC-62): > 10 µM (inactive)
